Laboratory results published in patent publication US8546113B2, “Hydrogen peroxide-forming NADH oxidase and DNA encoding the same” (Keio University, priority 2008, dated 2013).

Columns and labels:
[1] = tested on: NADH oxidase isolated from Brevibacterium sp.; assay: Substrates and activity levels in the presence of cofactors; assay type: biochemical, Brevibacterium sp. KU1309
Experimental: (§1) Enzyme activity was evaluated by measuring the absorbance at 340 nm, which decreases as a result of oxidization of NADH to NAD^+, with the use of an absorptiometer. A reaction was induced by adding an enzyme solution to a mixture of 0.1 mM NADH, 100 mM Tris-HCL (pH 8.8), and 500 mM ammonium sulfate. Herein, “1 unit” is defined as the amount of an enzyme that allows oxidation of 1μ mole of NADH per minute.

[2] = tested on: NADH oxidase isolated from Brevibacterium sp.; assay: H2O2 formation confirmation and quantification (o-dianisidine/peroxidase, Abs460); assay type: biochemical, Brevibacterium sp. KU1309; details: NADH 75, 100 and 150 μM
Experimental: NOX is classified into the H2O by-product type and the H2O2 by-product type. With the use of the assay method shown in FIG. 8A, H2O2 formation confirmation and H2O2 quantification were carried out. First, the reaction was carried out with the use of hydrogen peroxide, o-dianisidine, and peroxidase at known concentrations. The standard curve of [H2O2] vs Abs460 was created. The symbol “♦” denotes each obtained plotted point on the curve in FIG. 8B. […] The reaction was completed after the elapse of a sufficient reaction time. The completion of the reaction was confirmed with the use of an absorptiometer. The obtained reaction solution (50 μl) was added to a 100 mM phosphate buffer (pH 7.0) containing o-dianisidine and peroxidase, followed by absorbance determination. The symbol “□” denotes each obtained plotted point on the curve in FIG. 8B. […] It is understood that the values were identical to the relevant [H2O2] concentrations.

[3] = tested on: NADH oxidase isolated from Brevibacterium sp.; assay: Kinetic analysis of NADH oxidation (Lineweaver-Burk plot, absorbance at 340 nm); assay type: biochemical, Brevibacterium sp. KU1309; details: for Km: NOX 0.28 ug/ml
Experimental: as §1
For kinetic analysis, the reaction rate was determined at an NADH concentration of 10 μM to 100 μM. A Lineweaver-Burk plot was created based on the obtained values. The reaction was carried out as described below. A reaction solution (NOX: 0.28 ug/ml; NADH: 10 μM to 100 μM; (NH4)2SO4: 500 mM; and Tris-HCl: 100 mM (pH 8.8)) was introduced into an absorptiometer cell, followed by determination of the absorbance at 340 nm. Accordingly, the reaction rate was determined.

[4] = tested on: NADH oxidase isolated from Brevibacterium sp.; assay: Effects of salts on enzyme activity; assay type: biochemical, Brevibacterium sp. KU1309
Experimental: Reaction was carried out with the addition of different salts, followed by determination of absorbance at 340 nm. Then, the reaction rate was determined. […] Then, the effects of ammonium salt concentration upon enzyme activity were examined in the manner described below. The reaction was carried out in the presence of ammonium sulfate at a concentration of 0 M to 4.35 M. Thereafter, the relative value of the reaction rate was calculated.

[5] = tested on: NADH oxidase isolated from Brevibacterium sp.; details: inhibitor 1 mM, 3 minutes at room temperature; NADH 10 μM; (NH4)2SO4 500 mM; Tris-HCl pH 8.8; not stated whether % inhibition or % relative activity
Experimental: The enzyme solution was added to 100 mM Tris-HCl (pH 8.8). Further, an inhibitor was added thereto to a final concentration of 1 mM, followed by incubation at room temperature for 3 minutes. Then, NADH and (NH4)2SO4 were added thereto so as to result in concentrations of 10 μM and 500 mM, respectively, followed by determination of the absorbance at 340 nm. Accordingly, the reaction rate was determined.

[6] = as substrate, no cofactor added, NADH without cofactor = 100
[7] = NADH 10 μM to 100 μM, (NH4)2SO4 500 mM, Tris-HCl 100 mM (pH 8.8)
[8] = substrate NADH, cofactor added at 1 mM

Question: With “reduced nicotinamide adenine dinucleotide [NADH]” as the molecule, how does the “Specific activity (%)” value [1, 6] read?
Answer: 100%

Question: And the “hydrogen peroxide formed on oxidization of 1 mol of NADH” value [2]?
Answer: 1 mol

Question: And the Kcat ([3]; Calculated with a molecular weight of 101.68 kDa)?
Answer: 15.01 s⁻¹

Question: What about the Vmax [3, 7] of the same molecule?
Answer: 8.86 Unit/mq

Question: And the Km [3, 7]?
Answer: 22 µM

Question: For `N.N.O=S(=O)(O)O` [ammonium salt, ammonium sulfate], which “effect of addition of salt on enzyme activity” value [4] is on record?
Answer: increases

Question: What about the “ammonium salt concentration ([NH4+]) at maximum activity” value ([4]; ammonium sulfate 0 M to 4.35 M) of the same molecule?
Answer: 3.0 M

Question: For `Cc1cc2nc3c(=O)[nH]c(=O)nc-3n(C[C@H](O)[C@H](O)[C@H](O)COP(=O)(O)OP(=O)(O)OC[C@H]3O[C@@H](n4cnc5c(N)ncnc54)[C@H](O)[C@@H]3O)c2cc1C` [FAD], which “activation caused by FAD or FMN” value [1] is on record?
Answer: not observed

Question: And the “Specific activity (%)” value [1, 8]?
Answer: 101%

Question: `[Ag+]` [Ag^+] was tested. Which “activity inhibited (FIG. 6 relative activity values)” value [5] did it give?
Answer: 37%

Question: With `[Cu+2]` [Cu^2+] as the molecule, how does the “activity inhibited (FIG. 6 relative activity values)” value [5] read?
Answer: 42%

Question: What does the source list for `Cc1cc2nc3c(=O)[nH]c(=O)nc-3n(C[C@H](O)[C@H](O)[C@H](O)COP(=O)(O)O)c2cc1C` [FMN]?
Answer: activation caused by FAD or FMN [1]: not observed; Specific activity (%) [1, 8]: 104%

Question: `[Zn+2]` [Zn^2+] was tested. Which “activity inhibited (FIG. 6 relative activity values)” value [5] did it give?
Answer: 39%

Question: How did the “degree of NADPH-oxidizing activity” value [1] turn out when `NC(=O)C1=CN([C@@H]2O[C@H](COP(=O)(O)OP(=O)(O)OC[C@H]3O[C@@H](n4cnc5c(N)ncnc54)[C@H](OP(=O)(O)O)[C@@H]3O)[C@@H](O)[C@H]2O)C=CC1` [NADPH] was run?
Answer: low

Question: What about the “Specific activity (%)” value [1, 6] of the same molecule?
Answer: 2%

B1: enzyme of the present invention: hydrogen peroxide-forming NADH oxidase from Brevibacterium sp. KU1309, homodimer, amino acid sequence of SEQ ID NO: 18 (protein, listed as Brevibacterium sp.)
chain: VSDELTYDLVVLGGGTGGYAAALRAAELDMKVALIERDKVGGTCLHRGCVPTKALLHAAEVAETAKNSETFGIEAELQGIDIAKVLEYKDGVITRNYKGLQGLVKARGIDTYFGTGKLVGKDTVEVTGEDGNHTVKGTNVLLSTGSTSKTIGLEVTDRVITSTEALQLDKVPSSAIVLGGGVIGVEFASVWNSFGAEVTIVEGLKHLVANEDETISKNLERAFKKRKIKFKLGVMFKGVEETADGVKVTLEDGSTLEAEYLLVAVGRGPVTEGFGFEEQGIPMDRGFVLASERLHTGVGNIYACGDIVPGLQLAHRAFGQGIFIAEEIAGLNPAPVVESGIPRVTYCEPEIFSVGLSSAQAEEKYGKDQVESLEYNLGGNGKSVILNTTGLIKVIREKDGPVVGVHGIGARLSEQAGEAQLIVNWEAFPEEVAQLIHAHPTQNEALGEAHLALAGKPLHFHS
modifications: homodimer
Question: Which “hydrogen peroxide formed on oxidization of 1 mol of NADH” value [2] does the source give for B1 here?
Answer: 1 mol

Question: And the Km [3, 7]?
Answer: 22 µM
